Measured values published in patent US20080161583A1, “Epimerization methodologies for recovering stereoisomers in high yield and purity” (priority 2006, published 2008).
Values after ≈ are worked out from the molar mass of the structure shown.

Assay: Solubility of an epimer in a solvent at the epimerization temperature (saturated slurry, filtered sample, HPLC assay)
Format: physicochemical
Conditions: saturated slurry in denatured ethanol (2B-3), organic solvent or mixture, thermodynamic from solid
Description: The solubility of a first epimer in a solvent may be determined as follows. Sampling syringes and saturated slurry samples are pre-heated (or pre-chilled) to the desired epimerization temperature, e.g., 65 C or 70 C in some embodiments. The syringe is preheated (or pre-chilled) to the same temperature in a vessel containing only the solvent and the syringe. The syringes may be 5 ml disposable syringes. The saturated slurry samples are prepared by combining the solvent under investigation and enough of the purified first epimer to ensure that at least some precipitate is present so that the sample slurry is saturated. A purified epimer refers to an epimer having a purity of at least 85% by weight with respect to the total weight of epimers, preferably at least 90% by weight, more preferably at least 95% by weight. When both the sample and the syringe are at the desired temperature, 1.5 ml samples are quickly drawn into the syringe. The sampling syringes desirably acquire samples through a suitable filter to avoid bringing solids into the syringe. A 25 mm, 0.45 micron PTFE disk filter is suitable. 1 ml of each sample is blown down and then diluted in 10 ml of a solvent in which the epimer is fully soluble such as methanol. HPLC analysis is then performed to determine the amount of epimer in the diluted sample. […]

CC1(C)COC2(CC[C@H](CC(C(=O)O)c3ccc(S(C)(=O)=O)c(Cl)c3)C2)OC1 (some centres unmarked) [R,R epimer]
solubility (65 C): 23.2 mg/mL (≈ 53.9 mM)
solubility (70 C): 27.1 mg/mL (≈ 62.8 mM)
